Legend:
Assay type in all cases: in vivo
[1] = system: Amaranthus retoflexus (AMARE); assay: Post-emergence glasshouse herbicide test; conditions: POST Application, 1000 g/h, after 13 days
Protocol: (§1) Seeds of a variety of test species are sown in standard soil in pots (Alopecurus myosuroides (ALOMY), Setaria faberi (SETFA), Echinochloa crus-galli (ECHCG), Solanum nigrum (SOLNI), Amaranthus retoflexus (AMARE), Ipomoea hederacea (IPOHE)). After cultivation for one day (pre-emergence) or after 8 days cultivation (post-emergence) under controlled conditions in a glasshouse (at 24/16° C., day/night; 14 hours light; 65% humidity), the plants are sprayed with an aqueous spray solution derived from the formulation of the technical active ingredient in acetone/water (50:50) solution containing 0.5% Tween 20 (polyoxyethelyene sorbitan monolaurate, CAS RN 9005-64-5). Compounds ae applied at 1000 g/h. The test plants are then grown in a glasshouse under controlled conditions in a glasshouse (at 24/16° C., day/night; 14 hours light; 65% humidity) and watered twice daily. After 13 days for pre and post-emergence, the test is evaluated for the percentage damage caused to the plant. The biological activities are shown in the following table on a five point scale (5=80-100%; 4=60-79%; 3=40-59%; 2=20-39%; 1=0-19%).

[2] = system: Ipomoea hederacea (IPOHE); assay: Post-emergence glasshouse herbicide test; conditions: POST Application, 1000 g/h, after 13 days
Protocol: as §1

[3] = system: Solanum nigrum (SOLNI); assay: Post-emergence glasshouse herbicide test; conditions: POST Application, 1000 g/h, after 13 days
Protocol: as §1

[4] = system: Echinochloa crus-galli (ECHCG); assay: Post-emergence glasshouse herbicide test; conditions: POST Application, 1000 g/h, after 13 days
Protocol: as §1

[5] = system: Alopecurus myosuroides (ALOMY); assay: Post-emergence glasshouse herbicide test; conditions: POST Application, 1000 g/h, after 13 days
Protocol: as §1

[6] = system: Amaranthus retoflexus (AMARE); assay: Pre-emergence glasshouse herbicide test; conditions: PRE Application, 1000 g/h, after 13 days
Protocol: as §1

[7] = system: Ipomoea hederacea (IPOHE); assay: Pre-emergence glasshouse herbicide test; conditions: PRE Application, 1000 g/h, after 13 days
Protocol: as §1

[8] = system: Solanum nigrum (SOLNI); assay: Pre-emergence glasshouse herbicide test; conditions: PRE Application, 1000 g/h, after 13 days
Protocol: as §1

[9] = system: Echinochloa crus-galli (ECHCG); assay: Pre-emergence glasshouse herbicide test; conditions: PRE Application, 1000 g/h, after 13 days
Protocol: as §1

[10] = system: Setaria faberi (SETFA); assay: Pre-emergence glasshouse herbicide test; conditions: PRE Application, 1000 g/h, after 13 days
Protocol: as §1

[11] = system: Alopecurus myosuroides (ALOMY); assay: Pre-emergence glasshouse herbicide test; conditions: PRE Application, 1000 g/h, after 13 days
Protocol: as §1

[12] = system: Setaria faberi (SETFA); assay: Post-emergence glasshouse herbicide test; conditions: POST Application, 1000 g/h, after 13 days
Protocol: as §1, with “Compounds ae applied at 1000 g/h.” left out

Row | Structure (SMILES) | percentage damage caused to the plant, AMARE [1] | percentage damage caused to the plant, IPOHE [2] | percentage damage caused to the plant, SOLNI [3] | percentage damage caused to the plant, ECHCG [4] | percentage damage caused to the plant, ALOMY [5] | percentage damage caused to the plant, AMARE [6] | percentage damage caused to the plant, IPOHE [7] | percentage damage caused to the plant, SOLNI [8] | percentage damage caused to the plant, ECHCG [9] | percentage damage caused to the plant, SETFA [10] | percentage damage caused to the plant, ALOMY [11] | percentage damage caused to the plant, SETFA [12]
1 | Cn1nnnc1NC(=O)c1nc2cccnc2n(C)c1=O [Compound 4.001] | 5 (5=80-100%) | 4 (4=60-79%) | 5 (5=80-100%) | 5 (5=80-100%) | 1 (1=0-19%) | 5 (5=80-100%) | 3 (3=40-59%) | 5 (5=80-100%) | 4 (4=60-79%) | 1 (1=0-19%) | 1 (1=0-19%) | 2 (2=20-39%)
2 | Cn1nnnc1NC(=O)c1nc2cc(C(F)(F)F)ccc2n(C)c1=O [Compound 3.001] | 4 (4=60-79%) | 3 (3=40-59%) | 4 (4=60-79%) | 2 (2=20-39%) | 1 (1=0-19%) | 2 (2=20-39%) | 1 (1=0-19%) | 3 (3=40-59%) | 2 (2=20-39%) | 1 (1=0-19%) | 1 (1=0-19%) | 2 (2=20-39%)
3 | Cn1nnnc1NC(=O)c1cc2ccccc2n(-c2ccccc2)c1=O [Compound 7.001] | 3 (3=40-59%) | 2 (2=20-39%) | 4 (4=60-79%) | 2 (2=20-39%) | 1 (1=0-19%) | 2 (2=20-39%) | 1 (1=0-19%) | 1 (1=0-19%) | 1 (1=0-19%) | 1 (1=0-19%) | 1 (1=0-19%) | 1 (1=0-19%)
4 | Cn1nnnc1NC(=O)c1nc2ccccc2n(C)c1=O [Compound 5.002] | 5 (5=80-100%) | 5 (5=80-100%) | 5 (5=80-100%) | 4 (4=60-79%) | 1 (1=0-19%) | 5 (5=80-100%) | 5 (5=80-100%) | 5 (5=80-100%) | 5 (5=80-100%) | 1 (1=0-19%) | 1 (1=0-19%) | 1 (1=0-19%)
5 | Cn1nnnc1NC(=O)c1nc2ccccc2n(-c2ccc(F)cc2)c1=O [Compound 5.029] | 5 (5=80-100%) | 5 (5=80-100%) | 5 (5=80-100%) | 5 (5=80-100%) | 4 (4=60-79%) | 5 (5=80-100%) | 5 (5=80-100%) | 5 (5=80-100%) | 5 (5=80-100%) | 5 (5=80-100%) | 5 (5=80-100%) | 5 (5=80-100%)
6 | Cn1nnnc1NC(=O)c1nc2ccccc2n(-c2cccc(Br)c2)c1=O [Compound 5.024] | 5 (5=80-100%) | 4 (4=60-79%) | 5 (5=80-100%) | 5 (5=80-100%) | 5 (5=80-100%) | 5 (5=80-100%) | 5 (5=80-100%) | 5 (5=80-100%) | 5 (5=80-100%) | 5 (5=80-100%) | 5 (5=80-100%) | 5 (5=80-100%)
7 | Cn1nnnc1NC(=O)c1cc2cccnc2n(C)c1=O [Compound 1.001] | 3 (3=40-59%) | 2 (2=20-39%) | 5 (5=80-100%) | 3 (3=40-59%) | 1 (1=0-19%) | 2 (2=20-39%) | 1 (1=0-19%) | 2 (2=20-39%) | 1 (1=0-19%) | 1 (1=0-19%) | 1 (1=0-19%) | 1 (1=0-19%)
8 | COc1ccc(-n2c(=O)c(C(=O)Nc3nnnn3C)nc3ccccc32)cc1F [Compound 5.033] | 5 (5=80-100%) | 5 (5=80-100%) | 5 (5=80-100%) | 5 (5=80-100%) | 1 (1=0-19%) | 5 (5=80-100%) | 5 (5=80-100%) | 5 (5=80-100%) | 5 (5=80-100%) | 1 (1=0-19%) | 2 (2=20-39%) | 4 (4=60-79%)
9 | Cn1nnnc1NC(=O)c1cc2ccccc2n(-c2ccsc2)c1=O [Compound 7.002] | 3 (3=40-59%) | 2 (2=20-39%) | 5 (5=80-100%) | 2 (2=20-39%) | 1 (1=0-19%) | 2 (2=20-39%) | 2 (2=20-39%) | 3 (3=40-59%) | 1 (1=0-19%) | 1 (1=0-19%) | 1 (1=0-19%) | 1 (1=0-19%)
10 | Cn1nnnc1NC(=O)c1nc2ccccc2n(-c2ccc([N+](=O)[O-])cc2)c1=O [Compound 5.022] | 5 (5=80-100%) | 5 (5=80-100%) | 5 (5=80-100%) | 4 (4=60-79%) | 2 (2=20-39%) | 5 (5=80-100%) | 4 (4=60-79%) | 5 (5=80-100%) | 5 (5=80-100%) | 5 (5=80-100%) | 3 (3=40-59%) | 4 (4=60-79%)
11 | Cn1nnnc1NC(=O)c1nc2ccccc2n(-c2cccc(F)c2)c1=O [Compound 5.018] | 5 (5=80-100%) | 5 (5=80-100%) | 5 (5=80-100%) | 5 (5=80-100%) | 5 (5=80-100%) | 5 (5=80-100%) | 5 (5=80-100%) | 5 (5=80-100%) | 5 (5=80-100%) | 5 (5=80-100%) | 5 (5=80-100%) | 5 (5=80-100%)

From patent US9179678B2, “Substituted [1,2,4]triazoles and substituted tetrazoles as herbicides” (SYNGENTA LIMITED, priority 2012, dated 2015)
